Usually pIC50 stands for the negative decadic logarithm of the IC50, by convention in mol/L.

Common to all, as to type: biochemical
The target in experiment [1] is recombinant human PI3Kα (6-His(p110-p85α)) (Homo sapiens (Human), UniProt P42336). The experiment in a line: Enzymatic activity assay for recombinant human PI3Kα (ADP-Glo). The note with it: 1.2 nM PI3Kα, 20 μM ATP, 80 μM DiC8-PIP2, ADP-Glo. In outline:
(§1)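 ADP-Glo luminescence after DiC8-PIP2 phosphorylation at RT: 80 μM lipid substrate, 20 μM ATP, 1.2 nM enzyme (0.6 nM for δ) in Tris pH 7.4 with MgCl2, DTT, CHAPS. Compounds pre-incubated 15 min with enzyme, then 60 min reaction; DMSO ≤1%.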
On the technique in general: In ADP-Glo the light output rises with the ADP produced.

Experiment [2] addresses recombinant human PI3Kδ (6-His(p110-p85α)) (Homo sapiens (Human), UniProt O00329). The experiment in a line: Enzymatic activity assay for recombinant human PI3Kδ (ADP-Glo). The settings on record: 0.6 nM PI3Kδ, 20 μM ATP, 80 μM DiC8-PIP2, ADP-Glo. The method in brief:
(§2)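 ADP-Glo luminescence after DiC8-PIP2 (80 μM) phosphorylation with 20 μM ATP in 50 mM Tris pH 7.4, 3 mM MgCl2, 2.1 mM DTT, 0.05% CHAPS at room temperature. Enzyme 1.2 nM PI3Kγ or 0.6 nM PI3Kδ; inhibitors pre-incubated 15 min, then 60 min reaction.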

Experiment [3] concerns the target recombinant human PI3Kβ (6-His(p110-p85α)) (Homo sapiens (Human), UniProt P42338). The experiment can be described thus: Enzymatic activity assay for recombinant human PI3Kβ (ADP-Glo). The note with it: 1.2 nM PI3Kβ, 20 μM ATP, 80 μM DiC8-PIP2, ADP-Glo. In outline:
as §1

For experiment [4], the target named is recombinant human PI3Kγ ((aa144-1102)-6His) (Homo sapiens (Human), UniProt P48736). The experiment can be described thus: Enzymatic activity assay for recombinant human PI3Kγ (ADP-Glo). The note with it: 1.2 nM PI3Kγ, 20 μM ATP, 80 μM DiC8-PIP2, ADP-Glo. In outline: as §2

pIC50: −log10 of the molar value.

Chain of recombinant human PI3Kβ (6-His(p110-p85α)) (P42338 whole entry): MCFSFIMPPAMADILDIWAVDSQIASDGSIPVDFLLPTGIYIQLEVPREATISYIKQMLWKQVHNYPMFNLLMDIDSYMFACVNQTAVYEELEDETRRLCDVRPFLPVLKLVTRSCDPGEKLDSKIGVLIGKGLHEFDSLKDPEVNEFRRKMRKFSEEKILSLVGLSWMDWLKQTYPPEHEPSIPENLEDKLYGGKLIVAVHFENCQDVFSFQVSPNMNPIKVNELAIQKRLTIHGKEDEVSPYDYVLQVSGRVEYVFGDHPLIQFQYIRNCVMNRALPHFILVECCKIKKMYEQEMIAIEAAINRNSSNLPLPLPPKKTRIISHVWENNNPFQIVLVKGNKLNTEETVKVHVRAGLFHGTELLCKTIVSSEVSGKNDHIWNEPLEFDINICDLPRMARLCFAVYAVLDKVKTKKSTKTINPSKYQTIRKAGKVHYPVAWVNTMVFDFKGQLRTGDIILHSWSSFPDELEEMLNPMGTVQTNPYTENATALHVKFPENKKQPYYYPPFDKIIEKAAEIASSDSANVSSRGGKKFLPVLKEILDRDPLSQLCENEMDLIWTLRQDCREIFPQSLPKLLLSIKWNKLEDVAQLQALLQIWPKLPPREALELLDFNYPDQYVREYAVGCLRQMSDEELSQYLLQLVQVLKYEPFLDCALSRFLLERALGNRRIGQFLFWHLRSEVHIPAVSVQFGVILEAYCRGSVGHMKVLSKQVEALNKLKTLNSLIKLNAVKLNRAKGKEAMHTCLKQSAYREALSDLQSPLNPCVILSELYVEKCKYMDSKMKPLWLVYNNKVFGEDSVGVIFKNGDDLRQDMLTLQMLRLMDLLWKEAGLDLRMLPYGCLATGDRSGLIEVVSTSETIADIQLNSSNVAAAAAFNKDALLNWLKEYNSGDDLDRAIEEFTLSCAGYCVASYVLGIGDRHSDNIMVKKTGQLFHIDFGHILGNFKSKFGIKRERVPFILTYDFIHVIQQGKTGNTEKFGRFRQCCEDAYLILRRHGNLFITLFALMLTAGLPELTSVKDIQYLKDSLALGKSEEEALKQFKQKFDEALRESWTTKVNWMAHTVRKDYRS
Chain of recombinant human PI3Kβ (6-His(p110-p85α)) (P27986 whole entry partner): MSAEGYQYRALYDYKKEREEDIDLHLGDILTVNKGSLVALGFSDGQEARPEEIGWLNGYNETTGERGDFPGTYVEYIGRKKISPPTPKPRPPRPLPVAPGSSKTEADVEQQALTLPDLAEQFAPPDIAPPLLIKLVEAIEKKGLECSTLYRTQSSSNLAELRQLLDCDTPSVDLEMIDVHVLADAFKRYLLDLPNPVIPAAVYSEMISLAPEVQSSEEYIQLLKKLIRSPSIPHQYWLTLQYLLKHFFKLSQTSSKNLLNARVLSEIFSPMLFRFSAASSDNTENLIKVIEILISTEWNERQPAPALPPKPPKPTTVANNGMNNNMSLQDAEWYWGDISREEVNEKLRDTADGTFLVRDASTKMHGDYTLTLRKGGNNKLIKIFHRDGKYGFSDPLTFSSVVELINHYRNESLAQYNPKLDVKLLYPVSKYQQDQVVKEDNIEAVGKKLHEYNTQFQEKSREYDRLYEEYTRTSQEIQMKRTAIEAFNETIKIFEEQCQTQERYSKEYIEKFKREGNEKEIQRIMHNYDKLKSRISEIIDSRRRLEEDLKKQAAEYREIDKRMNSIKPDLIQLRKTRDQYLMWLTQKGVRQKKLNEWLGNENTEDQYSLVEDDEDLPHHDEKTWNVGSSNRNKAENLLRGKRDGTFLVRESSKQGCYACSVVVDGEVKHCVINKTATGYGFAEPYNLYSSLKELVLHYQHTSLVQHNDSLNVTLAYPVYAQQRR
Chain of recombinant human PI3Kδ (6-His(p110-p85α)) (O00329 whole entry): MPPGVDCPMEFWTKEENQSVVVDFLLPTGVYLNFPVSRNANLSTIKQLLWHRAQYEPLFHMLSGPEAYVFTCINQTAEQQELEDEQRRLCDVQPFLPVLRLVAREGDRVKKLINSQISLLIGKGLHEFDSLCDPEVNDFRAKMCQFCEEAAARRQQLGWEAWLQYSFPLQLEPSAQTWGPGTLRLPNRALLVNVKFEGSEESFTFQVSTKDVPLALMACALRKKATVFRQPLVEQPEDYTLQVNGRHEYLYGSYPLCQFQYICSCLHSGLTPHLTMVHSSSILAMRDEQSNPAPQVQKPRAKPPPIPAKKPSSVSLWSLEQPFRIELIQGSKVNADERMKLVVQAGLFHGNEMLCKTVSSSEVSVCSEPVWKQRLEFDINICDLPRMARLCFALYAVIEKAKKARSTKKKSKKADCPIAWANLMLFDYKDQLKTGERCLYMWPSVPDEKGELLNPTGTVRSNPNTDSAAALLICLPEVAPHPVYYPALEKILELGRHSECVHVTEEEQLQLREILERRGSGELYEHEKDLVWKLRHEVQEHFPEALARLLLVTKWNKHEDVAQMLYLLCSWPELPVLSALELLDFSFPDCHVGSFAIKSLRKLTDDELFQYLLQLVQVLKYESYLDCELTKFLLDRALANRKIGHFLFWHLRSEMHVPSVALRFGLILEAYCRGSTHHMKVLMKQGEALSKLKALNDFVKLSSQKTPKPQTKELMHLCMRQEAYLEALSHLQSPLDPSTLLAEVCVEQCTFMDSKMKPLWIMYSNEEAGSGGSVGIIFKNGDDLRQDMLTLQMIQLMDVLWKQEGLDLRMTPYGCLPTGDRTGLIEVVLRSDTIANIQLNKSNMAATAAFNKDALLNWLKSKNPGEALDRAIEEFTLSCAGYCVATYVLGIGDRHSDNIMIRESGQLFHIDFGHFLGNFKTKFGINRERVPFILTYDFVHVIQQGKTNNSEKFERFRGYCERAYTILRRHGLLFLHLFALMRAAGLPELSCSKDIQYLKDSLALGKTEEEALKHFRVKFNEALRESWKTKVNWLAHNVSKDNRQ
Chain of recombinant human PI3Kδ (6-His(p110-p85α)) (P27986 whole entry partner): as the sequence (P27986 whole entry partner) above
Chain of recombinant human PI3Kα (6-His(p110-p85α)) (P42336 whole entry): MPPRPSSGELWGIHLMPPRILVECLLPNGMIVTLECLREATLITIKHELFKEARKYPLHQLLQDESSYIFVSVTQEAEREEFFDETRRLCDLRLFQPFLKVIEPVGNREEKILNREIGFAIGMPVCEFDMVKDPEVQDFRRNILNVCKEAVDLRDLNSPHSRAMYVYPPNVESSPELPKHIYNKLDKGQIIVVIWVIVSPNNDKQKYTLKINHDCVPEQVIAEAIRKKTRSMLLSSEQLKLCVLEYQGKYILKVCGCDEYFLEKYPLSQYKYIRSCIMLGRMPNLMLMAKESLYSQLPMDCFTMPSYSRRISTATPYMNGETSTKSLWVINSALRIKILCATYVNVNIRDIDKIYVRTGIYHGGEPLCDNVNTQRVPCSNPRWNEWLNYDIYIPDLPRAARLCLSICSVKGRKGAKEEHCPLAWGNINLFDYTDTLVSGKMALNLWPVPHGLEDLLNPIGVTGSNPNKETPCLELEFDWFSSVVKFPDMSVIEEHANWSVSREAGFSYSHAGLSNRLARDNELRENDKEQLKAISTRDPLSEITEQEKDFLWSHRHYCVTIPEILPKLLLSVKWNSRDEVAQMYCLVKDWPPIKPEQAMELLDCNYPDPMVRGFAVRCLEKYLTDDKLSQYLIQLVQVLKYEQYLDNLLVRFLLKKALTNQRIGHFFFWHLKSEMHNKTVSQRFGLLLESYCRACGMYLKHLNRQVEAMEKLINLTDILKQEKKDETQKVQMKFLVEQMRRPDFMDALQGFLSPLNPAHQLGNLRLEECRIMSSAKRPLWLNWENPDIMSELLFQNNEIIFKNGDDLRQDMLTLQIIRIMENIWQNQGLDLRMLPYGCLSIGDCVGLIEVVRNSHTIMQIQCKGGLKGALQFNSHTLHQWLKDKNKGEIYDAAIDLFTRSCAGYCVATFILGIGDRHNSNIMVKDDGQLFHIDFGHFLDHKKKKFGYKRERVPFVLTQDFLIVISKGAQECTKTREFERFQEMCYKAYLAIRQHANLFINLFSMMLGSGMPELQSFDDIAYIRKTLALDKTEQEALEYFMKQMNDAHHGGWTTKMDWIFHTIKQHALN
Chain of recombinant human PI3Kα (6-His(p110-p85α)) (P27986 whole entry partner): as the sequence (P27986 whole entry partner) above
Chain of recombinant human PI3Kγ ((aa144-1102)-6His) (P48736 144-1102): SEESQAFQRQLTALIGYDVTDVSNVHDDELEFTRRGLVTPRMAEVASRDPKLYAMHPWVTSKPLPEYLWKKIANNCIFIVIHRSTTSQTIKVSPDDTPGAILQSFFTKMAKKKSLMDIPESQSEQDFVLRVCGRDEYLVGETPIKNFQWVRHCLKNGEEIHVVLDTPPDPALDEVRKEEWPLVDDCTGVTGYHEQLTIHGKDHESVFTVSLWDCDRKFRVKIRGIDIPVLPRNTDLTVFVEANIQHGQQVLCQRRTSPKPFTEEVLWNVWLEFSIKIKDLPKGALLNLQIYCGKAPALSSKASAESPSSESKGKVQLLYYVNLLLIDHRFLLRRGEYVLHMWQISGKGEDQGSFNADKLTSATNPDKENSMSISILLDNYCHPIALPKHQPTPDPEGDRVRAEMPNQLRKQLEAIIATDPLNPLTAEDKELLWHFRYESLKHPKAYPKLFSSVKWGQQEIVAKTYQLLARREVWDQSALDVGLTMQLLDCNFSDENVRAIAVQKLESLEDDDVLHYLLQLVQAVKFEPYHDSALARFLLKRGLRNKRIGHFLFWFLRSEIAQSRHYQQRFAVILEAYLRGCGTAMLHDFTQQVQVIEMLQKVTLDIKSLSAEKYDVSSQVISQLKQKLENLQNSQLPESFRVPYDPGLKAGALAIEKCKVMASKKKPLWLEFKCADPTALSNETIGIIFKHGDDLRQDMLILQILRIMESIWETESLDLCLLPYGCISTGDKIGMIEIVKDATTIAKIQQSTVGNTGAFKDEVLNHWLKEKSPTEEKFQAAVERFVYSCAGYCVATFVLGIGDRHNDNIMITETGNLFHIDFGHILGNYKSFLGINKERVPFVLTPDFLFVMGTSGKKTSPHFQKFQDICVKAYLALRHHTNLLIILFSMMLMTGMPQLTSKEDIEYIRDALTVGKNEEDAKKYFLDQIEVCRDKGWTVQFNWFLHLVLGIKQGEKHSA

As to `CCNS(=O)(=O)c1cc(-c2sc(Nc3cccc(N4CCNCC4=O)n3)nc2C)cc2c1C(=O)N([C@@H](C)C1CC1)C2` [Example 50, 2-[(1S)-1-Cyclopropylethyl]-N-ethyl-6-(4-methyl-2-{[6-(2-oxopiperazin-1-yl)pyridin-2-yl]amino}-1,3-thiazol-5-yl)-3-oxo-2,3-dihydro-1H-isoindole-4-sulfonamide], the negative-log IC50 (pIC50) in experiment [1] is 7.27; in experiment [2], 9.10; in experiment [3] it was 6.57; in experiment [4], 8.85.
With `Cc1nc(Nc2cccc(N3CCNCC3=O)n2)sc1-c1cc2c(c(S(=O)(=O)NC(C)C)c1)C(=O)N([C@@H](C)C1CC1)C2` [Example 51, 2-[(1S)-1-Cyclopropylethyl]-6-(4-methyl-2-{[6-(2-oxopiperazin-1-yl)pyridin-2-yl]amino}-1,3-thiazol-5-yl)-3-oxo-N-(propan-2-yl)-2,3-dihydro-1H-isoindole-4-sulfonamide], the negative logarithm of the IC50 (pIC50) in experiment [1] is 6.87; in experiment [2] it was 8.96; in experiment [3] it was 6.38; in experiment [4], 8.82.
Turning to `CNS(=O)(=O)c1cc(-c2sc(Nc3cccc(N4CCNCCC4=O)n3)nc2C)cc2c1C(=O)N([C@@H](C)C1CC1)C2` [Example 53, 2-[(1S)-1-Cyclopropylethyl]-N-methyl-6-(4-methyl-2-{[6-(7-oxo-1,4-diazepan-1-yl)pyridin-2-yl]amino}-1,3-thiazol-5-yl)-3-oxo-2,3-dihydro-1H-isoindole-4-sulfonamide], the pIC50 in experiment [1] was 7.19; in experiment [2] it was 9.15; in experiment [3], 6.58; in experiment [4], 8.85.
For `CNS(=O)(=O)c1cc(-c2sc(Nc3cccc(N4CC[C@@H](O)C4=O)n3)nc2C)cc2c1C(=O)N([C@@H](C)C1CC1)C2` [Example 54, 2-[(1S)-1-Cyclopropylethyl]-6-[2-({6-[(3R)-3-hydroxy-2-oxopyrrolidin-1-yl]pyridin-2-yl}amino)-4-methyl-1,3-thiazol-5-yl]-N-methyl-3-oxo-2,3-dihydro-1H-isoindole-4-sulfonamide], in that order: 7.85, 9.30, 6.49 and 9.05.
On to `CNS(=O)(=O)c1cc(-c2sc(Nc3cccc(N4C[C@H](O)CC4=O)n3)nc2C)cc2c1C(=O)N([C@@H](C)C1CC1)C2` [Example 55, 2-[(1S)-1-Cyclopropylethyl]-6-[2-({6-[(4R)-4-hydroxy-2-oxopyrrolidin-1-yl]pyridin-2-yl}amino)-4-methyl-1,3-thiazol-5-yl]-N-methyl-3-oxo-2,3-dihydro-1H-isoindole-4-sulfonamide], for which the pIC50 is 7.40 in experiment [1], 8.96 in experiment [2], 6.41 in experiment [3] and 9.05 in experiment [4].
As for `CNS(=O)(=O)c1cc(-c2sc(Nc3cccc(N4CC[C@H](O)C4=O)n3)nc2C)cc2c1C(=O)N([C@@H](C)C1CC1)C2` [Example 56, 2-[(1S)-1-Cyclopropylethyl]-6-[2-({6-[(3S)-3-hydroxy-2-oxopyrrolidin-1-yl]pyridin-2-yl}amino)-4-methyl-1,3-thiazol-5-yl]-N-methyl-3-oxo-2,3-dihydro-1H-isoindole-4-sulfonamide], the negative-log IC50 (pIC50) in experiment [1] is 7.59; in experiment [2], 9.30; in experiment [3], 6.60; in experiment [4] it was 9.00.
For `CNS(=O)(=O)c1cc(-c2sc(Nc3cccc(N4C(=O)CC[C@H]4CO)n3)nc2C)cc2c1C(=O)N([C@@H](C)C1CC1)C2` [Example 57, 2-[(1S)-1-Cyclopropylethyl]-6-[2-({6-[(2S)-2-(hydroxymethyl)-5-oxopyrrolidin-1-yl]pyridin-2-yl}amino)-4-methyl-1,3-thiazol-5-yl]-N-methyl-3-oxo-2,3-dihydro-1H-isoindole-4-sulfonamide], in that order: 7.96, 9.15, 7.07 and 8.92.
For `CNS(=O)(=O)c1cc(-c2sc(Nc3cccc(N4C(=O)CC[C@@H]4CO)n3)nc2C)cc2c1C(=O)N([C@@H](C)C1CC1)C2` [Example 58, 2-[(1S)-1-Cyclopropylethyl]-6-[2-({6-[(2R)-2-(hydroxymethyl)-5-oxopyrrolidin-1-yl]pyridin-2-yl}amino)-4-methyl-1,3-thiazol-5-yl]-N-methyl-3-oxo-2,3-dihydro-1H-isoindole-4-sulfonamide], the pIC50 in experiment [1] is 7.37; in experiment [2], 8.54; in experiment [3] it was 6.00; in experiment [4], 8.92.
Turning to `CNS(=O)(=O)c1cc(-c2sc(Nc3cccc(N4CCN(CCO)CC4=O)n3)nc2C)cc2c1C(=O)N([C@@H](C)C1CC1)C2` [Example 59, 2-[(1S)-1-Cyclopropylethyl]-6-[2-({6-[4-(2-hydroxyethyl)-2-oxopiperazin-1-yl]pyridin-2-yl}amino)-4-methyl-1,3-thiazol-5-yl]-N-methyl-3-oxo-2,3-dihydro-1H-isoindole-4-sulfonamide], the negative logarithm of the IC50 (pIC50) in experiment [1] was 7.57; in experiment [2] it was 9.15; in experiment [3] it was 6.32; in experiment [4], 9.05.
For the molecule `Cc1nc(Nc2cccc(N3CC[C@H](O)C3=O)n2)sc1-c1cc2c(c(S(=O)(=O)NC(C)C)c1)C(=O)N([C@@H](C)C(F)(F)F)C2` [Example 60, 6-[2-({6-[(3S)-3-Hydroxy-2-oxopyrrolidin-1-yl]pyridin-2-yl}amino)-4-methyl-1,3-thiazol-5-yl]-3-oxo-N-(propan-2-yl)-2-[(2S)-1,1,1-trifluoropropan-2-yl]-2,3-dihydro-1H-isoindole-4-sulfonamide], the pIC50 in experiment [1] is 7.24; in experiment [2] it was 9.30; in experiment [3], 6.49; in experiment [4], 8.92.
For `CC[C@H](C)N1Cc2cc(-c3sc(Nc4cccc(N5CCOCC5=O)n4)nc3C)cc(S(=O)(=O)NC)c2C1=O` [Example 62, 2-[(2S)-Butan-2-yl]-N-methyl-6-(4-methyl-2-{[6-(3-oxomorpholin-4-yl)pyridin-2-yl]amino}-1,3-thiazol-5-yl)-3-oxo-2,3-dihydro-1H-isoindole-4-sulfonamide], in that order: 6.79, 8.68, 5.94 and 9.10.
In the case of `CNS(=O)(=O)c1cc(-c2sc(Nc3cccc(N4CCNC4=O)n3)nc2C)cc2c1C(=O)N([C@@H](C)C(F)(F)F)C2` [Example 63, N-Methyl-6-(4-methyl-2-{[6-(2-oxoimidazolidin-1-yl)pyridin-2-yl]amino}-1,3-thiazol-5-yl)-3-oxo-2-[(2S)-1,1,1-trifluoropropan-2-yl]-2,3-dihydro-1H-isoindole-4-sulfonamide], the negative logarithm of the IC50 (pIC50) was 7.49 in experiment [1], 9.15 in experiment [2], 6.56 in experiment [3] and 8.92 in experiment [4].

The values are drawn from patent publication US10961236B2, “(S)-2-(1-cyclopropylethyl)-5-(4-methyl-2-((6-(2-oxopyrrolidin-1-yl)pyridin-2-yl)amino) thiazol-5-yl)-7-(methylsulfonyl)isoindolin-1-one as a phosphatidylinositol 3-kinase inhibitor” (AstraZeneca AB, priority 2016, dated 2021).
